Data set [1] deals with Oryctolagus sp. The settings on record: subchronic; inhalation; M/F; New Zealand; reduced testes weight, seminiferous tubule degeneration and reduced hemoglobin.
For data set [2], the system named is Rattus norvegicus. The settings on record: subchronic, oral, drinking water, Fischer 344, Deaths + Clinical Observation: Emaciation Diarrhea Abnormal posture Tremors + Body Weight Changes: decrease + Water Consumption: decrease + ….
The subject of data set [3] is Rattus norvegicus.
In data set [4] the test system is Mus musculus.
Data set [5] concerns Oryctolagus sp. The settings on record: acute.
In the next data set the test system is Cavia porcellus. As to conditions: acute, Guinea Pig; for LD50: oral.
The subject of data set [6] is Rattus norvegicus. As to conditions: uterotrophic, Active.
In data set [7] the test system is Mus musculus. As to conditions: uterotrophic; duration: 0.17 days; injection; subcutaneous; Active.
Where [8] appears, read: short-term, duration: 9 days, oral, gavage, Fischer 344.
Setting [9] is: subchronic, duration: 3 months, oral, diet, Wistar.
[10] abbreviates: subchronic, duration: 3 months, oral, gavage, Fischer 344.
Setting [11] is: short-term, duration: 11 days, oral, diet, B6C3F1.
The mark [12] stands for this setting: subchronic, duration: 3 months, oral, gavage, B6C3F1.

This note sets out measurements from EPA's ToxValDB 9.5.

Values joined by “and” are separate entries in the source; they are usually repeats but may differ in a detail not shown here. Equal entries are not always repeated.

For the compound `CCOCCO` [2-Ethoxyethanol], the LOAEL (commonly the lowest tested level that showed an adverse finding) in the data set on Oryctolagus sp. [1] was 1480 mg/m3. For the same compound, the no-observed-adverse-effect level (NOAEL) (as a rule, the highest dose or exposure tested at which no adverse effect was seen) in the data set with Oryctolagus sp. [1] amounted to 380 mg/m3. Moreover, the NOEL in the data set on Rattus norvegicus [2] (F) was 122 mg/kg-day; in the data set with Rattus norvegicus [2] (M/F), below 190 mg/kg-day.
With `CCCCC(CC)CO` (stereo unspecified) [2-Ethyl-1-hexanol], the LD50 – broadly, the dose at which mortality reaches 50% – was above 3000 mg/kg with Rattus norvegicus [3] (acute, dermal); 7000 mg/kg in the data set with Rattus norvegicus [3] (acute, oral, gavage, albino); > 2600 mg/kg and 1980 mg/kg in the data set on Oryctolagus sp. [5] (dermal); 1180 mg/kg and 1470 mg/kg with Oryctolagus sp. [5] (oral); ≥ 1220 mg/kg and ≤ 2820 mg/kg in the data set on Cavia porcellus; 600 mg/kg in the data set with Cavia porcellus (gavage). For the same compound, the no observed adverse effect level (NOAEL) is above 2520 mg/kg-day in the data set with Rattus norvegicus [3] (developmental, dermal, occlusive, Fischer 344); above 2520 mg/kg-day with Rattus norvegicus [3] (developmental, duration: 10 days, dermal, occlusive, Fischer 344); 650 mg/kg-day in the data set on Rattus norvegicus [3] (developmental, oral, gavage, Wistar); 0.648 mg/L and 0.32 mg/L in the data set on Rattus norvegicus [3] (repeat dose other, inhalation, Wistar); 130 mg/kg-day in the data set on Rattus norvegicus [3] (reproduction developmental, duration: 10 days, oral, gavage, F, Wistar); 130 mg/kg-day with Rattus norvegicus [3] (reproduction developmental, oral, gavage, F, Wistar). The NOAEL is 636 ppm in the data set on Rattus norvegicus [3] (short-term, duration: 9 days, oral, drinking water, Fischer 344); 83 mg/kg-day with Rattus norvegicus [3] (setting [8]); 0.32 mg/L in the data set with Rattus norvegicus [3] (short-term, duration: 14 days, inhalation, Wistar); 125 mg/kg-day and ≤ 250 mg/kg-day with Rattus norvegicus [3] (setting [10]); 250 mg/kg-day in the data set on Rattus norvegicus [3] (subchronic, duration: 13 weeks, oral, gavage); above 191 mg/kg-day in the data set with Mus musculus [4] (developmental, duration: 18 days, oral, diet, CD1). In addition, the NOAEL in the data set with Mus musculus [4] (reproduction developmental, duration: 18 days, oral, diet, F, CD1) is above 191 mg/kg-day; in the data set with Mus musculus [4] (reproduction developmental, oral, diet, F, CD1) it was above 191 mg/kg-day; with Mus musculus [4] (short-term, duration: 11 days, oral, diet, F, B6C3F1), 2650 mg/kg-day and 1000 mg/kg-day; in the data set on Mus musculus [4] (short-term, duration: 11 days, oral, gavage, B6C3F1) it was 100 mg/kg-day; in the data set with Mus musculus [4] (setting [12]) it was ≥ 125 mg/kg-day and ≤ 250 mg/kg-day; in the data set with Mus musculus [4] (subchronic, duration: 3 months, oral, gavage, F, B6C3F1), 250 mg/kg-day. In addition, the NOAEL in the data set on Mus musculus [4] (subchronic, duration: 3 months, oral, gavage, M, B6C3F1) was found to be 125 mg/kg-day. Moreover, the “NOAEL (% diet)” value with Rattus norvegicus [3] (repeat dose other, oral, diet, Fischer 344) is 0.46; in the data set on Rattus norvegicus [3] (setting [9]) it was 0.05; with Mus musculus [4] (repeat dose other, oral, diet, B6C3F1), ≥ 0.44 and ≤ 0.66; in the data set on Mus musculus [4] (setting [11]), ≥ 0.44 and ≤ 0.66. The LOAEL in the data set with Rattus norvegicus [3] (repeat dose other, oral, gavage, Fischer 344) was 100 mg/kg-day; in the data set on Rattus norvegicus [3] (setting [8]), 100 mg/kg-day; in the data set with Rattus norvegicus [3] (short-term, duration: 21 days, oral, gavage, Fischer 344), 100 mg/kg-day; with Rattus norvegicus [3] (setting [10]), 250 mg/kg-day; in the data set with Mus musculus [4] (setting [11]), ≥ 1000 mg/kg-day and ≤ 1500 mg/kg-day; in the data set on Mus musculus [4] (setting [12]) it was ≥ 250 mg/kg-day and ≤ 500 mg/kg-day. Moreover, the “LOAEL (% diet)” value in the data set with Rattus norvegicus [3] (setting [9]) was 0.25; in the data set with Mus musculus [4] (setting [11]) it was ≥ 0.66 and ≤ 1.32.
In the case of `N#CCCSCCC#N` [3,3'-Thiodipropionitrile], the LC50 in the data set on Rattus norvegicus [3] (acute, inhalation) is above 88.9 mg/m3; in the data set on Mus musculus [4] (acute, inhalation), above 88.9 mg/m3; in the data set on Cavia porcellus (inhalation) it was above 88.9 mg/m3. In addition, in the data set with Mus musculus [4] (acute, oral, gavage, albino), the LD50 came to 3750 mg/kg.
As for `CCCCCCCCCc1ccc(O)cc1` [4-Nonylphenol], the LEL in the data set on Rattus norvegicus [6] (duration: 1 days, injection, subcutaneous) is 200 mg/kg-day and 600 mg/kg-day; in the data set with Rattus norvegicus [6] (duration: 3 days, injection, intraperitoneal) it was 100 mg/kg-day; in the data set on Rattus norvegicus [6] (duration: 5 days, oral) it was 100 mg/kg-day; in the data set with Rattus norvegicus [6] (duration: 7 days, oral), 120 mg/kg-day; in the data set on Rattus norvegicus [6] (duration: 11 days, oral), 150 mg/kg-day; in the data set with Mus musculus [7], 0.022 mg.
